Measurements from patent publication US20210403922A1 (CRISP-HR Therapeutics, Inc., priority 2019, published 2021).
Entries after “also recorded” stand apart in the source; their conditions may differ.

B1: hExo1: human Exo1 exonuclease; N-terminal nuclease region SEQ ID NO: 1 (protein, listed as Homo sapiens)
chain: MGIQGLLQFIKEASEPIHVRKYKGQVVAVDTYCWLHKGAIACAEKLAKGEPTDRYVGFCMKFVNMLLSHGIKPILVFDGCTLPSKKEVERSRRERRQANLLKGKQLLREGKVSEARECFTRSINITHAMAHKVIKAARSQGVDCLVAPYEADAQLAYLNKAGIVQAIITEDSDLLAFGCKKVILKMDQFGNGLEIDQARLGMCRQLGDVFTEEKFRYMCILSGCDYLSSLRGIGLAKACKVLRLANNPDIVKVIKKIGHYLKMNITVPEDYINGFIRANNTFLYQLVFDPIKRKLIPLNAYEDDVDPETLSYAGQYVDDSIALQIALGNKDINTFEQIDDYNPDTAMPAHSRSHSWDDKTCQKSANVSSIWHRNYSPRPESGTVSDAPQLKE

Assays:
HBB genomic region = assay: Sanger sequencing of the HBB genomic region after Cas9 and gRNA transfection; type: cell-based, Human; settings: FIG. 6C / FIG. 13B, A549 cells, unmodified Cas9
A549 cells = assay: Resazurin reduction assay, gRNA targeting exon 1 of HBB gene; type: cell-based, Human; settings: FIG. 6B / FIG. 13A
Description: Cells are cultured in a 96-well plate and each well is seeded with about 2.5×10^4 cells. Each column of the 96-well plate receives a treatment with different plasmid respectively. […] The cells in the first column are transfected with plasmids encoding the first fusion protein as shown in FIG. 1; the cells in the second column with plasmids encoding the second fusion protein as shown in FIG. 1; the cells in the third column with plasmids encoding the third fusion protein as shown in FIG. 1; the cells in the fourth column with plasmids encoding the fourth fusion protein as shown in FIG. 1; the cells in the fifth column with plasmids encoding the fifth fusion protein as shown in FIG. 1; the cells in the sixth column with plasmids encoding the sixth fusion protein as shown in FIG. 1; the cells in the seventh column with plasmids encoding the seventh fusion protein as shown in FIG. 1; the cells in the eighth column with plasmids encoding the eighth fusion protein as shown in FIG. 1; and the cells in the ninth column with plasmids encoding the ninth fusion protein as shown in FIG. 1. […] The cells in the twelfth column are transfected with plasmids encoding GFPs. The cells in the […] are controls without any treatment.
Each of the plasmid constructs also contained a nucleotide sequence encoding a gRNA directed to recognize exon 1 of the human HBB gene. […] Three gRNA sequences as listed in Table 2 directed to recognize one of HBB gene's exon were used.
Toxicity was quantified using Resazurin as in Example 1.

[1] = tested on: phosphorylated 5′-double strand DNA ends; settings: cited from earlier work

Row | Molecule | Cas9 cleavage and repair via NHEJ (INDELs) by Sanger sequencing (HBB genomic region) | cellular toxicity of HBB gRNA guides with unmodified Cas9 (NT) (A549 cells) | cellular toxicity of HBB gRNA guides with unmodified Cas9 (NT) (A549 cells; listed as NT HBB-G3) | cellular toxicity of HBB gRNA guides with unmodified Cas9 (NT) (A549 cells; listed as gRNA G3) | Cas9 cleavage and repair via NHEJ (INDELs) by Sanger sequencing (HBB genomic region; listed as Cas9 HBB-G3) | affinity for phosphorylated 5′-double strand DNA ends as for unphosphorylated [1]
1 | HBB-G1: gRNA designed to target Exon 1 of the HBB gene, SEQ ID NO: 21 (guide GUAACGGCAGACUUCUCCUC; chemistry not given here) | could not be detected |  |  |  |  | 
2 | HBB-G3: gRNA designed to target Exon 1 of the HBB gene, SEQ ID NO: 23 (guide GAGGUGAACGUGGAUGAAGU; chemistry not given here) | characteristic noise following Cas9 cleavage and repair via NHEJ pathways; also recorded: significant cleavage | higher toxicity than either HBB-G1 or HBB-G2 | smallest normalized fold change number | highest cellular toxicity | generation of INDELs | 
3 | B1 |  |  |  |  |  | roughly 10 ×
